Literature values as cited in US20030035834A1, “Sustained release verapamil pharmaceutical composition free of food effect and a method for alleviating food effect in drug release” (priority 2000, published 2003).
Where two headings read alike, the source gives them in different places.

In the case of `COc1ccc2c3c1O[C@H]1C(=O)CC[C@@]4(O)[C@@H](C2)N(C)CC[C@]314` [oxycodone], the “difference in availability, fasted vs fed” value (extended release tablets) is listed as “no difference” and the “difference in availability, fasted vs fed” value (immediate release aqueous solution) is listed as “significant difference”.
